Laboratory results as given in article PMC8286599 (Gut Pathogens, 2021).
Like-named read-outs stand apart in the source and are kept apart here.

Legend:
[1] = tested on: MDR-EAEC strains; experiment: MIC and MBC by broth microdilution with resazurin; format: cell-based, enteroaggregative Escherichia coli; conditions: infant diarrhoea isolate
Description: (§1) The characterised MDR field strains of EAEC (E1; E2; E3), S. Enteritidis (S1; S2; S3), and S. Typhimurium (ST1; ST2; ST3) maintained in the laboratory repository of Meat Safety Laboratory of ICAR-National Research Centre on Meat, Hyderabad re-validated using PCR assays were used to evaluate the in vitro antibacterial efficacy of phytochemicals. E. coli ATCC 25922 was used as the quality control strain.
(§2) The antimicrobial efficacy of identified phytochemicals against multi-drug resistant EAEC and NTS strains was determined by estimating the minimum inhibitory concentration (MIC) and minimum bactericidal concentrations (MBC).
(§3) Subsequent to the incubation period, resazurin dye (0.015 %) was added to all the wells to determine the dye reduction (pink) and thereby the bacterial inhibition.

[2] = tested on: MDR-S. Enteritidis strains; experiment: MIC and MBC by broth microdilution with resazurin; format: cell-based, Salmonella Enteritidis; conditions: poultry droppings isolate
Description: as §1, §2, §3

[3] = tested on: MDR-S. Typhimurium strains; experiment: MIC and MBC by broth microdilution with resazurin; format: cell-based, Salmonella Typhimurium; conditions: poultry droppings isolate
Description: as §1, §2, §3

[4] = Haemolytic assay; format: cell-based; conditions: read-out: Haemolysis; for hemolysis at 0.5 X MIC: 0.50X MIC
Protocol: The haemolytic assay of the individual phytochemical was performed by measuring the release of haemoglobin from sheep and human ‘O’ erythrocytes at 540 nm. The percentage of haemolysis was calculated as (Asample – APBS)/ (ATriton−X – APBS) ×100, in which Asample is the absorbance of phytochemical treatment, APBS is the absorbance of untreated control with PBS, and ATriton−X is the absorbance of lysed cells treated with Triton X-100 measured at 540 nm.

[5] = tested on: MDR-EAEC strains; experiment: Stability assay, pH (MIC)
Description: (§4) To explore the utility of phytochemicals as therapeutic molecules and their stability, individual phytochemicals were exposed to cationic salts, and different pH levels followed by analysing their MIC and MBC values against test strains as described earlier.
(§5) Subsequent to exposure to varied conditions, the antimicrobial activity of the phytochemicals was estimated by determining their MIC and MBC values against all the selected MDR strains of EAEC, S. Enteritidis, and S. Typhimurium as described earlier.

[6] = tested on: MDR-S. Enteritidis strains; experiment: Stability assay, pH (MIC)
Description: as §4, §5

[7] = tested on: MDR-S. Typhimurium strains; experiment: Stability assay, pH (MIC)
Description: as §4, §5

[8] = tested on: MDR-EAEC strains; experiment: Stability assay, cationic salts (MIC)
Description: as §4, §5

[9] = tested on: MDR-S. Enteritidis strains; experiment: Stability assay, cationic salts (MIC)
Description: as §4, §5

[10] = tested on: MDR-S. Typhimurium strains; experiment: Stability assay, cationic salts (MIC)
Description: as §4, §5

[11] = human 'O' erythrocytes, Human RBCs

Cc1ccc(C(C)C)c(O)c1 [Thymol, thymol]
1.0 µl/ml: MIC at given pH ([6]; pH 8, strain S2) | MIC at given pH ([7]; pH 6, strain ST2) | MIC at given pH ([7]; pH 8, strain ST2) | MIC at given pH ([7]; pH 8, strain ST3) | MIC with cationic salt ([9]; 150 mM NaCl, strain S3) | MIC with cationic salt ([10]; 2 mM MgCl2, strain ST2)
13.5%: hemolysis at 2 X MIC [4, 11]
0.5 µl/ml: MIC at given pH ([5]; pH 8, strain E1) | MIC at given pH ([5]; pH 8, strain E3) | MIC at given pH ([6]; pH 4, strain S1) | MIC at given pH ([6]; pH 4, strain S2) | MIC at given pH ([6]; pH 4, strain S3) | MIC at given pH ([6]; pH 6, strain S1) | MIC at given pH ([6]; pH 6, strain S2) | MIC at given pH ([6]; pH 6, strain S3) | MIC at given pH ([6]; pH 8, strain S1) | MIC at given pH ([6]; pH 8, strain S3) | MIC at given pH ([7]; pH 4, strain ST1) | MIC at given pH ([7]; pH 4, strain ST2) | MIC at given pH ([7]; pH 4, strain ST3) | MIC at given pH ([7]; pH 6, strain ST1) | MIC at given pH ([7]; pH 6, strain ST3) | MIC at given pH ([7]; pH 8, strain ST1) | MIC with cationic salt ([9]; 2 mM MgCl2, strain S1) | MIC with cationic salt ([9]; 2 mM MgCl2, strain S2) | MIC with cationic salt ([9]; 2 mM MgCl2, strain S3) | MIC with cationic salt ([9]; 150 mM NaCl, strain S1) | MIC with cationic salt ([9]; 150 mM NaCl, strain S2) | MIC with cationic salt ([10]; 2 mM MgCl2, strain ST1) | MIC with cationic salt ([10]; 2 mM MgCl2, strain ST3) | MIC with cationic salt ([10]; 150 mM NaCl, strain ST1) | MIC with cationic salt ([10]; 150 mM NaCl, strain ST2) | MIC with cationic salt ([10]; 150 mM NaCl, strain ST3)
2.86%: hemolysis at 1 X MIC [4, 11]
11.4%: hemolysis at 2 X MIC ([4]; sheep erythrocytes, Sheep RBCs)
1.49%: hemolysis at 1 X MIC ([4]; sheep erythrocytes, Sheep RBCs)
0.50 µl/ml: MBC ([1]; EAEC (E2)) | MBC ([2]; S. Enteritidis (S1)) | MBC ([2]; S. Enteritidis (S2)) | MBC ([2]; S. Enteritidis (S3)) | MBC ([3]; S. Typhimurium (ST1)) | MBC ([3]; S. Typhimurium (ST2)) | MBC ([3]; S. Typhimurium (ST3))
0.06 µl/ml: MIC ([3]; S. Typhimurium (ST3))
0.12 µl/ml: MIC ([2]; S. Enteritidis (S1))
48.5%: hemolysis at 8 X MIC [4, 11]
21.6%: hemolysis at 4 X MIC ([4]; sheep erythrocytes, Sheep RBCs)
0.25 µl/ml: MBC ([1]; EAEC (E1)) | MIC ([1]; EAEC (E1)) | MIC ([1]; EAEC (E2)) | MBC ([1]; EAEC (E3)) | MIC ([1]; EAEC (E3)) | MIC ([2]; S. Enteritidis (S2)) | MIC ([2]; S. Enteritidis (S3)) | MIC ([3]; S. Typhimurium (ST1)) | MIC ([3]; S. Typhimurium (ST2)) | MIC at given pH ([5]; pH 4, strain E1) | MIC at given pH ([5]; pH 4, strain E2) | MIC at given pH ([5]; pH 4, strain E3) | MIC at given pH ([5]; pH 6, strain E1) | MIC at given pH ([5]; pH 6, strain E2) | MIC at given pH ([5]; pH 6, strain E3) | MIC at given pH ([5]; pH 8, strain E2) | MIC with cationic salt ([8]; 2 mM MgCl2, strain E1) | MIC with cationic salt ([8]; 2 mM MgCl2, strain E2) | MIC with cationic salt ([8]; 2 mM MgCl2, strain E3) | MIC with cationic salt ([8]; 150 mM NaCl, strain E1) | MIC with cationic salt ([8]; 150 mM NaCl, strain E2) | MIC with cationic salt ([8]; 150 mM NaCl, strain E3)
47.6%: hemolysis at 8 X MIC ([4]; sheep erythrocytes, Sheep RBCs)
1.91%: hemolysis at 0.5 X MIC [4, 11]
remained almost similar: Change of MIC values with cationic salts ([8]; 150 mM NaCl and 2 mM MgCl2, MDR-EAEC strains)
1.22%: hemolysis at 0.25 X MIC [4, 11]
0.22%: hemolysis at 0.5 X MIC ([4]; sheep erythrocytes, Sheep RBCs)
39.4%: hemolysis at 4 X MIC [4, 11]
0%: hemolysis at 0.25 X MIC ([4]; sheep erythrocytes, Sheep RBCs)
